According to ChEMBL document CHEMBL5696442, “Discovery of type II inhibitors of TGFβ-activated kinase 1 (TAK1) and mitogen-activated protein kinase kinase kinase kinase 2 (MAP4K2)” (J Med Chem, 2015):

Experiments:
[1] = target: T1, Dual specificity mitogen-activated protein kinase kinase 4 (Homo sapiens) (UniProt P45985); test: Inhibition of MAP2K4 Lys2 labeling site in human Huh-7 cell lysate at 1 uM by KiNativ Profiling analysis relative to control; format: subcellular
T1 sequence (whole entry): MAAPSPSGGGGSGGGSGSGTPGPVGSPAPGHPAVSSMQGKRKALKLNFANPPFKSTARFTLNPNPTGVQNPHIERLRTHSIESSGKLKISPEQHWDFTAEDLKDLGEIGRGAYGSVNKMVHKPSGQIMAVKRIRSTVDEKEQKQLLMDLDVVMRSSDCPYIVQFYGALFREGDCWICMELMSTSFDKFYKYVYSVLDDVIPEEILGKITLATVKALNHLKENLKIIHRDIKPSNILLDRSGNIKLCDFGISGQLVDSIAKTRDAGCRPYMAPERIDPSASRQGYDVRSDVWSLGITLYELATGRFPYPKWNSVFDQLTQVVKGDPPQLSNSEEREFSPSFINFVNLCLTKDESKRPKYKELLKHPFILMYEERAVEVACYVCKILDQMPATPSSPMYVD

[2] = target: T2, Serine/threonine-protein kinase Nek1 (Homo sapiens) (UniProt Q96PY6); test: Inhibition of NEK1 Lys2 labeling site in human Huh-7 cell lysate at 1 uM by KiNativ Profiling analysis relative to control; format: subcellular
T2 sequence (whole entry): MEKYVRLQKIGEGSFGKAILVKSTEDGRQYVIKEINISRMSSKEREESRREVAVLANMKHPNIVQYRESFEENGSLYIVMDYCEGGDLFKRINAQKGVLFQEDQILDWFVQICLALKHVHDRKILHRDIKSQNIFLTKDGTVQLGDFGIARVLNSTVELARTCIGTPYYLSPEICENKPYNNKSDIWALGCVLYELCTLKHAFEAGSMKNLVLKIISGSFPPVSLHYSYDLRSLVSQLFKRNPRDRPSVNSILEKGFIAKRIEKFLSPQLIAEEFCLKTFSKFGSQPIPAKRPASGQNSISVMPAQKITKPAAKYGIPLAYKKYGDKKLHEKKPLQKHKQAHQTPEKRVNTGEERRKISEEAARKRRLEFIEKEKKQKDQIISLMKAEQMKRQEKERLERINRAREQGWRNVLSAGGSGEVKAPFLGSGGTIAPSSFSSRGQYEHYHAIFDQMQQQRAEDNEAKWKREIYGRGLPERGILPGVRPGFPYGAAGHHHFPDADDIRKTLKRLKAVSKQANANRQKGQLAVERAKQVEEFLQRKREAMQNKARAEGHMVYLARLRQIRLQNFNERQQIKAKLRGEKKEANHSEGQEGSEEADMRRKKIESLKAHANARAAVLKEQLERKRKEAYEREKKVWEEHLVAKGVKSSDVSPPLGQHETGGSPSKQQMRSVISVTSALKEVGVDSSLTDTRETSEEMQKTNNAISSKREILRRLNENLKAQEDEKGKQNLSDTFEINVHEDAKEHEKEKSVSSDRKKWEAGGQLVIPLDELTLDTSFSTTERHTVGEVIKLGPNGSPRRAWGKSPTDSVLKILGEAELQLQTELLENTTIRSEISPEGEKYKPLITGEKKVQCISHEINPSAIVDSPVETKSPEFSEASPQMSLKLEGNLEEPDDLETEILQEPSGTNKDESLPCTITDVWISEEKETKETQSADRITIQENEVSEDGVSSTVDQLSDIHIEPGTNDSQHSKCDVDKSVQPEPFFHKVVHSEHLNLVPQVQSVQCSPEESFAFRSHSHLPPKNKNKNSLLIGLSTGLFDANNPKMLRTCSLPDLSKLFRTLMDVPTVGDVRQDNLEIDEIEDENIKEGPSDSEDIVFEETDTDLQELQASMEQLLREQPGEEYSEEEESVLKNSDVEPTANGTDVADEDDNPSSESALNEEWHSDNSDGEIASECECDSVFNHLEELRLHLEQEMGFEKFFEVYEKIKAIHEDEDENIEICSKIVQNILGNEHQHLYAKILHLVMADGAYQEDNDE

[3] = target: Ribosomal protein S6 kinase alpha-1 (Homo sapiens) (UniProt Q15418); test: Inhibition of RSK1 Domain 1 ACT labeling site in human Huh-7 cells at 10 uM by KiNativ Profiling analysis relative to control; format: cell-based
Sequence of Ribosomal protein S6 kinase alpha-1 (Homo sapiens) (Q15418 whole entry, the tested form may be a part): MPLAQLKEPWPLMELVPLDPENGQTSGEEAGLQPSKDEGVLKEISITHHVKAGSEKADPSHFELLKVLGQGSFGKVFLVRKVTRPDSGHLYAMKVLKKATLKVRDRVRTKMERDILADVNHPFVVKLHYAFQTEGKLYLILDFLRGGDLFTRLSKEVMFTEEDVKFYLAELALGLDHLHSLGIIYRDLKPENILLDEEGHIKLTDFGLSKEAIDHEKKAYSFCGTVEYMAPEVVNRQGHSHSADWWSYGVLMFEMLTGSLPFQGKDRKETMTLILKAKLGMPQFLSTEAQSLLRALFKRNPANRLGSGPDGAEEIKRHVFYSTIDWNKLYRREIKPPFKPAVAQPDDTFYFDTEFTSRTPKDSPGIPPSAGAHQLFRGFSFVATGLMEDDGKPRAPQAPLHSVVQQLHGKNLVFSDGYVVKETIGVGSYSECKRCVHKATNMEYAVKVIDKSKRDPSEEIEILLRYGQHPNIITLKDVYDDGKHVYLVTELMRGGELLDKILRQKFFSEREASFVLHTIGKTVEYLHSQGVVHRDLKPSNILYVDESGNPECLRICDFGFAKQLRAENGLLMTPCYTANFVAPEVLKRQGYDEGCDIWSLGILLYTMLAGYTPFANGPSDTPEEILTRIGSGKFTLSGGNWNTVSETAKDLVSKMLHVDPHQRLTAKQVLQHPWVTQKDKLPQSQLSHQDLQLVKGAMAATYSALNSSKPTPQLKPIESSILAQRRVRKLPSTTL

[4] = target: Receptor-interacting serine/threonine-protein kinase 1 (Homo sapiens) (UniProt Q13546); test: Inhibition of RIPK1 (unknown origin) at 10 uM by Ambit Kinomescan binding assay relative to control; values are per cent of control
Sequence of Receptor-interacting serine/threonine-protein kinase 1 (Homo sapiens) (Q13546 whole entry): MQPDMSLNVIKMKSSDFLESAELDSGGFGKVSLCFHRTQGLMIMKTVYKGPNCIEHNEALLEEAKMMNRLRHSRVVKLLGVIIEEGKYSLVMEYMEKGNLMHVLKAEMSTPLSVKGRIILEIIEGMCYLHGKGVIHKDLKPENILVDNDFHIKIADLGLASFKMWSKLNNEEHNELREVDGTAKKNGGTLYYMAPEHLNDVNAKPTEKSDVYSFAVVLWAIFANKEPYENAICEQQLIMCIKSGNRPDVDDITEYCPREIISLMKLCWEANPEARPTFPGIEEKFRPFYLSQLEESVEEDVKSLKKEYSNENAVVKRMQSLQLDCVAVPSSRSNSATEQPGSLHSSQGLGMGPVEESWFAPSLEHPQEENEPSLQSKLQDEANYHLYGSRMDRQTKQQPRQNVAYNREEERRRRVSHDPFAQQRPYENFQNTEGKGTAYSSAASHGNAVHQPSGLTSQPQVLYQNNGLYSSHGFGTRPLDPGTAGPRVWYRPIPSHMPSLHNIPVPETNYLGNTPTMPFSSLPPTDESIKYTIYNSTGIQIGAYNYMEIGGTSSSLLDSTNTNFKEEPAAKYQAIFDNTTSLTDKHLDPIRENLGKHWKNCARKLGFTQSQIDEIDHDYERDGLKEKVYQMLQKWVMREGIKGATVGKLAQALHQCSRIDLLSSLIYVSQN

[5] = target: Serine/threonine-protein kinase N2 (Homo sapiens) (UniProt Q16513); test: Inhibition of PKN2 (unknown origin) at 1 uM by Ambit Kinomescan binding assay relative to control; values are per cent of control
Sequence of Serine/threonine-protein kinase N2 (Homo sapiens) (Q16513 whole entry, looked up): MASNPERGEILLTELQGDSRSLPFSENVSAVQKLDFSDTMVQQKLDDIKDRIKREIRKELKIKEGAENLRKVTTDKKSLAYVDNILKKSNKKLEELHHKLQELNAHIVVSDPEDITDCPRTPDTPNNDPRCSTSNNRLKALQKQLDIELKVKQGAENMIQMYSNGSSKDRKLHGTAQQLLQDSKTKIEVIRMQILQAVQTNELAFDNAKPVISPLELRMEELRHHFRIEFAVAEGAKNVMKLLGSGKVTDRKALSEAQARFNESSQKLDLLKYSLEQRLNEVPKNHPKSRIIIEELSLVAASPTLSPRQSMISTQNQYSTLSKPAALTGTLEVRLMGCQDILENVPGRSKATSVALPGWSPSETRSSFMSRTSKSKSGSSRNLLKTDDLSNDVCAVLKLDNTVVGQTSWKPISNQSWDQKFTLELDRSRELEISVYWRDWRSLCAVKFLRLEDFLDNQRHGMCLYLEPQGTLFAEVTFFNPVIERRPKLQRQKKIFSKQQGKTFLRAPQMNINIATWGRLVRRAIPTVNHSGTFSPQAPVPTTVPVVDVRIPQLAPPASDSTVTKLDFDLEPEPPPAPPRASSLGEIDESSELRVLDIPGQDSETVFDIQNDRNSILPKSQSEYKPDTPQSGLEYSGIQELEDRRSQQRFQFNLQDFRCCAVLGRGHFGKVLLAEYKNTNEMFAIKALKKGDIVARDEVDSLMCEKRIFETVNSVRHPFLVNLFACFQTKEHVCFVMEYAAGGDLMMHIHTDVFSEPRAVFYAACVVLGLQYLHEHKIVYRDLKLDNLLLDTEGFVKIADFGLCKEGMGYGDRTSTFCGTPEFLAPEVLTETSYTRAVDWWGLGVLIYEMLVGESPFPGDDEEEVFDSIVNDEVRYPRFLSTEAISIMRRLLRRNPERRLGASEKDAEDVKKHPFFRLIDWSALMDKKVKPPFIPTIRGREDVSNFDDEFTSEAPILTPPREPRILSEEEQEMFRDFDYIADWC

[6] = target: Protein kinase C eta type (Homo sapiens) (UniProt P24723); test: Inhibition of PRKCH (unknown origin) at 1 uM by Ambit Kinomescan binding assay relative to control; values are per cent of control
Sequence of Protein kinase C eta type (Homo sapiens) (P24723 whole entry): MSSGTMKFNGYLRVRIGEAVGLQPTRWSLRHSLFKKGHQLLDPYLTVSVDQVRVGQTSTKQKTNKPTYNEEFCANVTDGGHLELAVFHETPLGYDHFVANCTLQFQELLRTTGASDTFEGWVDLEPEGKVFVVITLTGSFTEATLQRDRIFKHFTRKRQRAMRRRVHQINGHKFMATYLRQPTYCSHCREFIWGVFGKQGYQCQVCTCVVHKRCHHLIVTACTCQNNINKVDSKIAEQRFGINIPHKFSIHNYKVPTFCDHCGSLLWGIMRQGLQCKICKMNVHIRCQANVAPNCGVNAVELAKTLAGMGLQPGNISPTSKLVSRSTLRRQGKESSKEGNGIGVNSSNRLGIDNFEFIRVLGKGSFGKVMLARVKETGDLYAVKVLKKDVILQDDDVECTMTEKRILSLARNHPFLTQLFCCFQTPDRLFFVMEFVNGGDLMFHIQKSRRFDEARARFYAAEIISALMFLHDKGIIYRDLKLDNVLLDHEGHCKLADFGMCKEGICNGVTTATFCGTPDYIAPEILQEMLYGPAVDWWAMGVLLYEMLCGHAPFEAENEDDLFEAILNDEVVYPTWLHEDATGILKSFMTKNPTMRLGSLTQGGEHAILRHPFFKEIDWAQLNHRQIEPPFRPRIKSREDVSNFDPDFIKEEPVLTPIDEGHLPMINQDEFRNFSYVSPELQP

CNc1cc(Oc2cc(C(=O)Nc3cc(N4CCN(C)CC4)cc(C(F)(F)F)c3)ccc2C)ncn1
inhibition [1]: -3.9%
inhibition [2]: -1.1%

CCN1CCN(Cc2ccc(NC(=O)c3ccc(C)c(Oc4ccnc5[nH]ccc45)c3)cc2C(F)(F)F)CC1
inhibition [3]: 3.4%
residual activity [4]: 0%

CCN1CCN(Cc2ccc(NC(=O)c3ccc(C)c(/C=C/c4cnc5[nH]ccc5c4OC)c3)cc2C(F)(F)F)CC1
residual activity [5]: 35%
residual activity [6]: 100%
